| Structure (SMILES) | melting point [°C] |
| --- | --- |
| Oc1ccc(Oc2cccc(C(F)(F)F)n2)cc1 | 94 to 95 |
| N=C(N)c1ccc(N2CCC(N3CCN(CCC(=O)O)C3=O)CC2)cc1 | > 275 |
| NC1CNC(=O)C12CC2 (stereo not drawn) | 97 to 99 |
| CC1(C)NC(=O)N(c2ccc([N+](=O)[O-])c(C(F)(F)F)c2)C1=N | 168 |
| CCn1nc(-c2nc(C#N)c(NCc3ccc(OC)cc3)nc2-c2ccccc2)ccc1=O | 166 to 168 |
| CC(=O)NS(=O)(=O)c1cccc(NC(=O)NC2N=C(c3ccccc3F)c3ccccc3N(CC(=O)N3CC4CCC(CC4)C3)C2=O)c1 (racemic) | 193 to 203 |
| O=C(O)c1ccc(OCCNC(=O)C2Cc3ccccc3N2S(=O)(=O)c2ccc(-c3ccc(F)cc3)cc2)cc1 (stereo not drawn) | 108 |
| COC(=O)C(NC(=O)Nc1ccc(C=NO)cc1)C(=O)OC | 162 |
| Brc1cc(Cc2ccc3ccccc3c2)cc(Br)c1OCc1nnn[nH]1 | 183 to 184 |
| O=C(Nc1ccc(C2(O)CCN(C(=O)OCc3ccccc3)CC2)cc1)OCc1ccccc1 | 156 to 158 |
| COC1=C(C(=O)c2ccc(C)cc2)C(c2ccc(OC(F)(F)F)cc2)N(c2ccc(C)nn2)C1=O (stereo not drawn) | 206 to 207 |
| COc1ccc(CCNC(=O)CN)cc1OC1CCCC1 | 57 to 60 |
| CC(=O)OC1CSC(Oc2cncc(-c3cc4ccccc4o3)c2)C(OC(C)=O)C1OC(C)=O (stereo not drawn) | 125 |
| CCc1noc(-c2ncn(-c3cccc(Oc4ccc([N+](=O)[O-])cc4)c3)c2COC)n1 | 126 to 127 |
| CCCCCCCCCCCC(=O)OCc1ccccc1-c1nc(-c2cccc(OC)c2)n[nH]1 | 45 |
| COc1cc(C(=O)C(F)(F)F)ccc1OCCCN1CCC(c2noc3cc(F)ccc23)CC1 | 78 to 80 |
| CCOC(=O)N1CCN(c2ccc(-n3cnn(C(CC)C(=O)c4ccc(Cl)cc4)c3=O)cn2)CC1 (stereo not drawn) | 139 |
| CC(=O)c1ccc2cc(S(N)(=O)=O)sc2c1 | 154 to 155 |
| CCOc1ccc(-c2ncc(C#N)cn2)cc1 | 153 |
| O=C(CCc1cccnc1)C12CC3CC(CC(C3)C1)C2 | 43 to 44.5 |

| Structure (SMILES) | melting point [°C] |
| --- | --- |
| O=C(CCCCl)c1ccc2ccccc2c1O | 73 to 79 |
| COc1cc(-n2cnc3cc(-c4ccc(Cl)cc4)sc3c2=O)ccc1OCC1(O)CC(F)(F)C1 | 198 to 199 |
| CCOC(=O)c1cnc(SC)nc1NC | 91 to 93 |
| COc1cn(-c2ccc(OS(=O)(=O)C(F)(F)F)cc2F)nc(-c2ccnn2-c2ccccc2)c1=O | 108 to 110 |
| CNC(=NS(=O)(=O)c1ccc(C)cc1)Nc1cc(C(C)c2ccc(-c3ccccc3)c(F)c2)on1 (stereo not drawn) | 125 to 127 |
| CN(C)c1ccc(C2CCCN2S(=O)(=O)c2ccc(Cl)cc2)cc1F (racemic) | 99 |
| CN(C)c1ccc2cc(C#N)oc2c1 | 70 to 71 |
| O=Cc1cccn1-c1ccc(F)cc1 | 82 to 83 |
| CC1=C2C3C(C)CC4=CC(=O)CCC4C3CCC2(C)C(O)C1 (stereo not drawn) | 164 to 167 |
| CCCCc1nnc(SCC2CCCCC2)n1Cc1ccc(-c2ccccc2-c2nnn[nH]2)cc1 | 89 to 91 |
| COC=C(C(=O)OC)n1ccc2ccc(-c3csc(-c4ccc(C)cc4)n3)cc21 | 145 to 146 |
| CC(C)[Si](C)(C)CCCSCCNC(=O)n1cc(F)c(=O)[nH]c1=O | 113 to 114 |
| CCN(C(=O)OC(C)(C)C)C1CC=C(c2c[nH]c3ccc([N+](=O)[O-])cc23)CC1 (stereo not drawn) | 217 to 219 |
| O=C(O)c1ccc(Br)c(CN2CCC(c3cn(Cc4ccncc4)c4ccccc34)CC2)c1 | 167 to 168 |
| c1ccc(NCC2Oc3ccccc3O2)cc1 | 70 to 72 |
| COc1ccc(-n2cnc(-c3cc(OC)cc(OC)c3)c2-c2ccc(OC)c(O)c2)cc1 | 131 to 134 |
| O=C(NCc1ccc(F)cc1)c1sc2ccccc2c1Br | 120 to 125 |
| COc1ccc(C=C(c2ccc(OCc3ccccc3)cc2)N(C)C)cc1 | 60 |
| COC(=O)C1=C(C)Nc2c(c(C)nn2C)C1c1cccc([N+](=O)[O-])c1 (stereo not drawn) | 163 to 166 |

Results, then the compound that gave them:

| melting point [°C] | Structure (SMILES) |
| --- | --- |
| 151 to 152 | CCOC(=O)CNC(=S)NC(=Nc1ccccc1)c1ccccc1 |
| 146 to 147 | CN(C)C=Nc1ncc[nH]1 |
| 60 to 62 | CC(O)c1nccc2ccccc12 (stereo not drawn) |
| < 80 | CN1COc2cc(CCCN3CCOCC3)cnc21 |
| 228 | CN1CCC(Sc2[nH]nc(-c3ccc(Cl)cc3)c2-c2ccncc2)CC1 |
| 107 to 109 | Cc1ccc(Oc2ccc(-n3cncn3)cc2)c(O)c1 |
| 185 | Cc1cc(N)c(C)c(/C=C/C(=O)O)c1 |
| 306 | CCCCCCCc1ccc(C(=O)Nc2ccc(C(=O)NN=C3C(=O)Nc4ccc(I)cc43)cc2)cc1 |
| 260 to 262 | O=C1c2ccccc2N=C(c2ccccc2)C1O (stereo not drawn) |
| 147 to 148 | COc1ccc(C2=NN(c3ccccn3)C(=O)[C@H]3CC=CC[C@@H]23)cc1OC (relative stereo) |
| 220 to 222 | CC1(C)CN(C(=O)Nc2cccnc2)c2cc(C#N)ccc21 |
| 110 to 115 | Nc1ccc2c(c1)CN(Cc1ccccc1)C2 |
| 213 to 214 | CC(C)(C)Sc1c(CC(C)(C)C(=O)O)n(Cc2ccc(Cl)cc2)c2ccc(OCc3ccc4ccccc4c3)cc12 |
| 79 | CC(=O)SCC(=Cc1ccc(C(F)(F)F)cc1)C(=O)NCCC(=O)OCc1ccccc1 |
| 135 to 138 | COc1ccc(S(=O)(=O)C2(CCCC#Cc3cccc(N)c3)SC(=O)NC2=O)cc1 (stereo not drawn) |
| 138 to 140 | COC1(c2cccc(Sc3ccc4c(ccc(=O)n4CC(F)(F)F)c3)c2)CCOCC1 |
| 213 to 215 | O=C(NCc1ccc(Cl)cc1)c1cn2c3c(cc(CN4CCOCC4)cc3c1=O)OC(CN1CCCCC1)C2 (stereo not drawn) |
| 150 to 152 | CCCCc1nc(CC(=O)OC)c(Cl)n1Cc1ccc(NC(=O)c2ccccc2C(=O)O)cc1 |
| 120 to 123 | O=C(CCCN1CCNC1=O)N1CCC(C2c3ncc(Br)cc3CCc3cc(Cl)cc(Br)c32)CC1 (single isomer, unassigned; (+)) |
| 92 to 94 | CCOC(=O)c1nc(-c2cc(Cl)c(OC)c(OC)c2)cs1 |
| 177 to 179 | Cc1ccc(N2C(=O)C3=C(CCCC3)C2=O)c2c1OC(CO)C2 (stereo not drawn) |
| 152 to 154 | Cn1nnnc1SCC1(C)SC2C(NC(=O)Cn3cnnn3)C(=O)N2C1C(=O)O (stereo not drawn) |
| 252 | CCc1ccc2c(c1)C=Cc1cc(C)ccc1C2c1cn(-c2ccnc(N3CC(C(=O)Nc4nnn[nH]4)C3)n2)c(=O)[nH]c1=O (stereo not drawn) |
| 93 to 94 | CC(O)CCCCn1cnc2c1c(=O)n(C)c(=O)n2C (stereo not drawn) |
| 118 to 122 | O=S(=O)(c1cc(SC(F)(F)F)[nH]c1-c1ccc(Cl)cc1)C(F)(F)F |
| 114 to 116 | CCOCC1OC(n2cnc3c(NC4CCCC4)nc(Cl)nc32)C(O)C1O (stereo not drawn) |
| 71 to 72 | CC(C)(C)OC(=O)N1CCC(C(=O)C2CCCCC2=O)CC1 (stereo not drawn) |
| 114 to 116 | CCNC(=O)c1ccsc1[Si](C)(C)C |
| 188 to 189 | CC(C)(C)c1cc(CCc2ccccc2NC(=O)NCC2(c3ccc4c(c3)OCO4)CCCC2)cc(C(C)(C)C)c1O |

From a melting point compilation (Tetko et al.; mined from patent text by program, amines drawn as free bases though some values may be those of a salt)
